Among the data in patent US20070149508A1, “Six membered heteroaromatic inhibitors targeting resistant kinase mutations” (TargeGen, Inc., priority 2005, published 2007) are IC50 values, retold here.

The term IC50 denotes the concentration at which inhibition is half-maximal. Lower therefore signals greater potency.

Where a name gives a salt, the structure may show the parent alone.

One test addresses Abl kinase (Homo sapiens, UniProt P00519). As to the kind of experiment: biochemical. The following applies: Abl IC50 (nM), Abl kinase (Invitrogen, 20 ng/well), Abltide 100 μM, ATP 500 nM, 37° C. for 60 minutes, top concentration 10 uM.
The target of another test is T1, Abl (T315I) (Homo sapiens, UniProt P00519, T315I).
T1 construct: purchased Upstate
As to the kind of experiment: Abl (T315I) Kinase Assay (KinaseGlo luminescent detection of residual ATP). The format is biochemical. Particulars: Abl (T315I) IC50 (nM), Abl (T315I) (Upstate, 17 ng/well), Abltide 100 uM, ATP 500 nM, 60 minutes at 37° C. How it is done: The assay was performed similarly to the Abl kinase assay. Abl (T315I) (Upstate, 17 ng/well); Abltide substrate (100 uM) and ATP (500 nM) comprised the reaction mixture. Compound was similarly diluted, and the reaction plate was incubated for 60 minutes at 37° C.
In general terms: Kinase-Glo reads ATP consumption through a luciferase reaction.

Method for Abl kinase: Kinase activity was assessed using luminescent detection (KinaseGlo, Promega) of residual ATP concentration in reaction mixtures containing optimized levels of kinase, substrate, ATP, compound and appropriate buffers. Kinase, substrate and ATP concentrations were determined per the supplier's recommendations. Briefly, this involved running concentration curves to select for optimal signal.
The reaction mixture (50 ul/well) consisted of Abl kinase (Invitrogen, 20 ng/well); Abltide peptide substrate (Upstate, 100 μM) and ATP (500 nM). Each compound was evaluated at a top concentration of 10 uM with 1:3 dilution steps, 10 dilution steps total. Compound was diluted into DMSO and transferred to the reaction plate, resulting in a final DMSO concentration of 2%. This amount of DMSO was determined not to interfere with the enzyme. The reaction was conducted at 37° C. for 60 minutes. The degree of inhibition was assessed using IC50 determinations, which were obtained using GraphPad Prism4.

With `Nc1nc2ccc(/C=C/c3cnc(Nc4ccc(S(=O)(=O)N5CCCC(O)C5)cc4)nc3)cc2s1` (stereo not drawn) [(E)-1-(4-(5-(2-(2-aminobenzo[d]thiazol-6-yl)vinyl)pyrimidin-2-ylamino)phenylsulfonyl)piperidin-3-ol], the IC50 worked out at 432 nM against Abl kinase and 214 nM against Abl (T315I).
`O=S(=O)(c1ccc(Nc2ncc(/C=C/c3cccc(O)c3)cn2)cc1F)N1CCNCC1` [3-(2-{2-[3-Fluoro-4-(piperazine-1-sulfonyl)-phenylamino]-pyrimidin-5-yl}-vinyl)-phenol]: the values for the IC50 against Abl kinase and at Abl (T315I) were 56 nM and 266 nM, respectively.
Consider `O=S(=O)(NCCN1CCCC1)c1ccc(Nc2ncc(/C=C/c3cc(O)ccc3F)cn2)cc1` [4-{5-[2-(2-Fluoro-5-hydroxy-phenyl)-vinyl]-pyrimidin-2-ylamino}-N-(2-pyrrolidin-1-yl-ethyl)-benzenesulfonamide], for which the IC50 is 25 nM against Abl kinase and 240 nM against Abl (T315I).
In the case of `C=Cc1cnc(Nc2ccc(S(=O)(=O)N3CCNCC3)c(N3CCNCC3)c2)nc1` [N-[3-piperazin-1-yl-4-(piperazin-1-ylsulfonyl)phenyl]-5-vinylpyrimidin-2-amine trifluoroacetic acid salt], the IC50 was 22200 nM on Abl kinase and 4640 nM on Abl (T315I).
On the same counts, the results for `N=C(N)c1cccc(/C=C/c2cnc(Nc3ccc(S(=O)(=O)C4CCNCC4)cc3)nc2)c1` [3-(2-{2-[4-(Piperidine-4-sulfonyl)-phenylamino]-pyrimidin-5-yl}-vinyl)-benzamidine] are 3670 nM and 53000 nM.
On to `O=S(=O)(c1ccc(Nc2ncc(/C=C/c3ccc4[nH]nnc4c3)cn2)cc1)C1CCNCC1` [5-((E)-2-(1H-benzo[d][1,2,3]triazol-5-yl)vinyl)-N-(4-(piperidin-4-ylsulfonyl)phenyl)pyrimidin-2-amine], for which the figures for the IC50 against Abl kinase and against Abl (T315I) were 75 nM and 467 nM, respectively.
On the same counts, the results for `O=S(=O)(c1ccc(Nc2ncc(/C=C/c3ccc4c(c3)CC/C4=N/O)cn2)cc1)C1CCNCC1` [5-(2-{2-[4-(Piperidine-4-sulfonyl)-phenylaminol]-pyrimidin-5-yl}-vinyl)-indan-1-one oxime] are 2420 nM and 1800 nM.
In the case of `Nc1cccc(/C=C/c2cnc(Nc3ccc(S(=O)(=O)C4CCNCC4)cc3)nc2)n1` [5-((E)-2-(6-aminopyridin-2-yl)vinyl)-N-(4-(piperidin-4-ylsulfonyl)phenyl)pyrimidin-2-amine Hydrochloride], the IC50 worked out at 56 nM on Abl kinase and 1210 nM at Abl (T315I).
Consider `Nc1nc2ccc(/C=C/c3cnc(Nc4ccc(S(=O)(=O)C5CCNCC5)cc4)nc3)cc2[nH]1` [6-[(E)-2-(2-{[4-(piperidin-4-ylsulfonyl)phenyl]amino}pyrimidin-5-yl)vinyl]-1H-benzimidazol-2-amine], for which the concentration for half-maximal inhibition (IC50) amounted to 192 nM against Abl kinase and 169 nM at Abl (T315I).
Regarding `Cc1ccc(/C=C/c2cnc(Nc3ccc(S(=O)(=O)C4CCNCC4)cc3)nc2)c2cc[nH]c12` [5-((E)-2-(7-methyl-1H-indol-4-yl)vinyl)-N-(4-(piperidin-ylsulfonyl)phenyl)pyrimidin-2-amine Hydrochloride], the values for the IC50 at Abl kinase and against Abl (T315I) were 58 nM and 167 nM, respectively.
For `O=S(=O)(c1ccc(Nc2ncc(/C=C/c3ccc(-c4ncc[nH]4)cc3)cn2)cc1)C1CCNCC1` [5-((E)-(4-(1H-imidazol-2-yl)styryl))-N-(4-(piperidin-4-ylsulfonyl)phenyl)pyrimidin-2-amine hydrochloride], the IC50 against Abl kinase came out at 374 nM; against Abl (T315I), 1290 nM.
On to `Nc1nc2ccc(/C=C/c3cnc(Nc4ccc(S(=O)(=O)N5CCC(NCCO)CC5)cc4)nc3)cc2s1` [2-[(1-{[4-({5-[(E)-2-(2-amino-1,3-benzothiazol-6-yl)vinyl]pyrimidin-2-yl}amino)phenyl]sulfonyl}piperidin-4-yl)amino]ethanol], for which the values for the IC50 at Abl kinase and against Abl (T315I) were 158 nM and 146 nM, respectively.
